The source made the active and inactive calls. No cut-off for these calls is given here.
What was measured:
Endothelial cell [1] = experiment: Prevention of FGF2 deprivation-induced reduction of vascular endothelial cell viability after 24 hrs by MTT assay; assay type: functional, cell-based; conditions: Homo sapiens
[2] = Inhibition of FGF2 deprivation-induced ROS level in vascular endothelial cells at 30 ug/ml after 24 hrs relative to control; assay type: functional, Homo sapiens, Endothelial cell
[3] = Inhibition of serum deprivation-induced integrin beta-4 expression in vascular endothelial cells at 40 ug/ml after 24 hrs relative to control; assay type: functional, Homo sapiens, Endothelial cell
[4] = Inhibition of serum deprivation-induced ROS level in vascular endothelial cells at 30 ug/ml after 24 hrs relative to control; assay type: functional, Homo sapiens, Endothelial cell
Endothelial cell [5] = experiment: Prevention of serum deprivation-induced reduction of vascular endothelial cell viability after 48 hrs by MTT assay; assay type: functional, cell-based; conditions: Homo sapiens
[6] = Inhibition of FGF2 deprivation-induced integrin beta-4 expression in vascular endothelial cells at 40 ug/ml after 24 hrs relative to control; assay type: functional, Homo sapiens, Endothelial cell
Endothelial cell [7] = experiment: Prevention of serum deprivation-induced reduction of vascular endothelial cell viability after 24 hrs by MTT assay; assay type: functional, cell-based; conditions: Homo sapiens
Endothelial cell [8] = experiment: Inhibition of DNA fragmentation in vascular endothelial cells at 40 ug/ml after 24 hrs; assay type: functional, cell-based; conditions: Homo sapiens
[9] = Inhibition of FGF2 deprivation-induced vascular endothelial cell apoptosis assessed as apoptotic cell proportion at 40 ug/ml after 24 hrs by TUNEL assay; assay type: functional, Homo sapiens; parameters: scale not given: the % may be the effect or the level left
[10] = Inhibition of serum deprivation-induced vascular endothelial cell apoptosis assessed as apoptotic cell proportion at 40 ug/ml after 24 hrs by TUNEL assay; assay type: functional, Homo sapiens; parameters: scale not given: the % may be the effect or the level left
Endothelial cell [11] = experiment: Prevention of FGF2 deprivation-induced reduction of vascular endothelial cell viability after 48 hrs by MTT assay; assay type: functional, cell-based; conditions: Homo sapiens

Compound: O=C1OC(COc2ccccc2[N+](=O)[O-])CC1Cc1ccccc1 (stereo unspecified)
- Activity (Endothelial cell [1]): Dose-dependent effect
- Activity [2]: 7.95
- Activity [3]: 33.8
- Activity [4]: 7.95
- Activity (Endothelial cell [5]): Dose-dependent effect
- Activity [6]: 33.8
- Activity (Endothelial cell [7]): Dose-dependent effect
- Activity (Endothelial cell [8]): Active
- Activity [9]: 9.89%
- Activity [10]: 9.89%
- Activity (Endothelial cell [11]): Dose-dependent effect
